Tested on: in-vitro oral biofilms
Assay: Effect of treatment with active agents on the composition of in-vitro oral biofilms (Calgary Biofilm Device, 16S rRNA pyrosequencing)
Assay type: cell-based, oral bacteria
From the text: An in-vitro oral biofilm model for oral care product evaluation has recently been developed using the commercially available Calgary Biofilm Device (CBD) (Ceri, Olson, Stremick, Read, Morck, Buret, J Clin Microbiol. (1999) June; 37(6):1771-6) seeded with a natural saliva inoculum (Kistler, Pesaro, Wade, BMC Microbiol. (2015) December; 15(1):364). The pegs of the CBD were coated in hydroxyapatite to provide a surface that was chemically similar to tooth enamel. […] In addition, the composition of the biofilms was reproducible when derived from saliva of the same individuals at different time points.
Approximately 5 ml of saliva was collected from each volunteer by expectoration into sterile universal tubes. The saliva samples were then pooled together in equal volumes. DNA was extracted from an aliquot of the pooled saliva and 200 μl was pipetted into each well of a microtitre plate, as required. The wells around the edge of the microplate were not used. The device lid, with 96 hydroxyapatite-coated pegs (to mimic teeth) was fitted so that the pegs were bathed in saliva. The CBD was then incubated for 18 hours at 37° C. in air+5% CO2 after which the lid was transferred to a new baseplate containing Brain Heart Infusion (BHI) broth (Fluka Analytical) supplemented with hog gastric mucin (1 g/L), haemin (10 mg/L), and vitamin K (0.5 mg/L). The growth medium was changed after every 3.5 days.
The active agents were prepared as follows: 5% or 7.5% stock solutions were made in absolute ethanol. The stock solutions were then diluted to working concentration in sterile PBS. Thymol was diluted down to a final concentration of 0.1% v/v and the composition according to the invention, comprising 95% carrier and 5% of the compound of formula A, was diluted to 0.15% v/v. The final test concentration of the compound of formula A was 0.0075 wt.-%.
At 7 days, biofilms were treated with the active agents or a negative PBS control. […]
The bacterial composition of the biofilms and saliva was determined using 454 pyrosequencing of partial 16S rRNA genes. […]

In the case of Cc1ccc(C(C)C)c(O)c1 [Thymol], the “PCoA clustering of treated biofilms relative to negative control” value (community membership (Jaccard index) and structure (thetaYC)) was “did not cluster separately”, the “Mean no. of OTUs (sd)” value (richness of the biofilm community, treated twice daily for seven days, thymol 0.1% v/v, composition 0.15% v/v, 10 replicates) was 250.8 and the “Effect on the composition of in-vitro biofilms” value (summary statement) was “did not have a significant effect”.
